According to PubChem BioAssay AID330 (DTP/NCI, 2004):
“And” between values parts separate entries of the source, which are not always exact repeats. Equal entries are not always repeated. Toxic doses and inconclusive results are not listed.

System: P388 leukemia ip, CD2F1 mice, survival T/C
Experiment: NCI In Vivo Anticancer Drug Screen. Data for tumor model P388 Leukemia (intraperitoneal) in CD2F1 (CDF1) mice
Conditions: endpoint: median survival time, higher = longer survival
Outline: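 Mice carrying the transplanted tumor received test compound or vehicle. Survival was recorded in each group, and the value is the treated-group measurement divided by that of the vehicle-treated control group.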

[1] = dose: 6.25 mg/kg/injection, schedule: Q01DX009 (ip), vehicle: Klucel (hydroxypropylcellulose) (HPC)
[2] = dose: 12.5 mg/kg/injection, schedule: Q01DX009 (ip), vehicle: Klucel (hydroxypropylcellulose) (HPC)
[3] = dose: 25.0 mg/kg/injection, schedule: Q01DX009 (ip), vehicle: Klucel (hydroxypropylcellulose) (HPC)
[4] = dose: 50.0 mg/kg/injection, schedule: Q01DX009 (ip), vehicle: Klucel (hydroxypropylcellulose) (HPC)
[5] = dose: 50.0 mg/kg/injection, schedule: Q01DX005 (ip), vehicle: Klucel (hydroxypropylcellulose) (HPC)
[6] = dose: 100.0 mg/kg/injection, schedule: Q01DX005 (ip), vehicle: Klucel (hydroxypropylcellulose) (HPC)
[7] = dose: 200.0 mg/kg/injection, schedule: Q01DX005 (ip), vehicle: Klucel (hydroxypropylcellulose) (HPC)
[8] = dose: 100.0 mg/kg/injection, schedule: Q01DX009 (ip), vehicle: Klucel (hydroxypropylcellulose) (HPC)
[9] = dose: 200.0 mg/kg/injection, schedule: Q01DX009 (ip), vehicle: Klucel (hydroxypropylcellulose) (HPC)
[10] = dose: 25.0 mg/kg/injection, schedule: Q01DX009 (ip), vehicle: saline with Tween-80
[11] = dose: 50.0 mg/kg/injection, schedule: Q01DX009 (ip), vehicle: saline with Tween-80
[12] = dose: 100.0 mg/kg/injection, schedule: Q01DX009 (ip), vehicle: saline with Tween-80
[13] = dose: 200.0 mg/kg/injection, schedule: Q01DX009 (ip), vehicle: saline with Tween-80
[14] = dose: 60.0 mg/kg/injection, schedule: Q01DX005 (ip), vehicle: saline with Tween-80
[15] = dose: 120.0 mg/kg/injection, schedule: Q01DX005 (ip), vehicle: saline with Tween-80
[16] = dose: 100.0 mg/kg/injection, schedule: Q04DX003 (ip), vehicle: saline with Tween-80

## CCCCCCCCCCCC(=O)NCC(=O)NC1C(CO)OC(Nc2ncnc3nc[nH]c23)C(O)C1O (stereo not drawn)
dose: 0.06 mg/kg/injection, schedule: Q01DX009 (ip), vehicle: water
  T/C: 93 % of control
dose: 0.12 mg/kg/injection, schedule: Q01DX009 (ip), vehicle: water
  T/C: 101 % of control
dose: 0.13 mg/kg/injection, schedule: Q01DX009 (ip), vehicle: other
  T/C: 103 % of control
dose: 0.25 mg/kg/injection, schedule: Q01DX009 (ip), vehicle: other
  T/C: 113 % of control
dose: 0.25 mg/kg/injection, schedule: Q01DX009 (ip), vehicle: water
  T/C: 99 % of control
dose: 0.5 mg/kg/injection, schedule: Q01DX009 (ip), vehicle: other
  T/C: 121 % of control
dose: 0.5 mg/kg/injection, schedule: Q01DX009 (ip), vehicle: water
  T/C: 99 % of control
dose: 1.0 mg/kg/injection, schedule: Q01DX009 (ip), vehicle: water
  T/C: 105 % of control
dose: 2.0 mg/kg/injection, schedule: Q01DX009 (ip), vehicle: other
  T/C: 100 % of control and 86 % of control
dose: 2.0 mg/kg/injection, schedule: Q01DX009 (ip), vehicle: water
  T/C: 124 % of control

## CCN(CC)CCCC(C)Nc1cc(/C=C/c2ccc(Cl)cc2)nc2ccc(N(C)C)cc12 (stereo not drawn)
dose: 7.5 mg/kg/injection, schedule: Q01DX005 (ip), vehicle: saline with Tween-80
  T/C: 100 % of control
dose: 15.0 mg/kg/injection, schedule: Q01DX005 (ip), vehicle: saline with Tween-80
  T/C: 104 % of control

## O=C(NCCCCN1CC1)C(=O)NCCCCN1CC1
dose: 0.78 mg/kg/injection, schedule: Q04DX003 (ip), vehicle: Klucel (hydroxypropylcellulose) (HPC)
  T/C: 120 % of control
dose: 3.12 mg/kg/injection, schedule: Q04DX003 (ip), vehicle: Klucel (hydroxypropylcellulose) (HPC)
  T/C: 162 % of control
dose: 6.25 mg/kg/injection, schedule: Q04DX003 (ip), vehicle: Klucel (hydroxypropylcellulose) (HPC)
  T/C: 178 % of control

## CCOC(=O)C(Cc1ccc(N(CCCl)CCCl)cc1)NC(=O)C(CC(C)C)NC(C)=O (stereo not drawn)
dose: 3.12 mg/kg/injection, schedule: Q01DX009 (ip), vehicle: Klucel (hydroxypropylcellulose) (HPC)
  T/C: 162 % of control
dose: 5.0 mg/kg/injection, schedule: Q04DX003 (ip), vehicle: water
  T/C: 105 % of control
[1]
  T/C: 172 % of control
dose: 10.0 mg/kg/injection, schedule: Q04DX003 (ip), vehicle: water
  T/C: 107 % of control
[2]
  T/C: 241 % of control and 254 % of control
dose: 20.0 mg/kg/injection, schedule: Q04DX003 (ip), vehicle: water
  T/C: 108 % of control
[3]
  T/C: 119 % of control
dose: 40.0 mg/kg/injection, schedule: Q04DX003 (ip), vehicle: other
  T/C: 122 % of control
dose: 40.0 mg/kg/injection, schedule: Q04DX003 (ip), vehicle: water
  T/C: 109 % of control
[4]
  T/C: 104 % of control and 97 % of control
dose: 80.0 mg/kg/injection, schedule: Q04DX003 (ip), vehicle: other
  T/C: 116 % of control

## Fc1nn2ccccc2c1C(F)(F)F
[5]
  T/C: 99 % of control
[6]
  T/C: 104 % of control
[7]
  T/C: 100 % of control

## Cc1ccc(N=Cc2ccccc2O)c(Br)c1
[4]
  T/C: 88 % of control
[8]
  T/C: 89 % of control
[9]
  T/C: 98 % of control

## CCCC(OC(C)=O)C(C)[N+](=O)[O-] (stereo not drawn)
dose: 12.5 mg/kg/injection, schedule: Q01DX009 (ip), vehicle: saline with Tween-80
  T/C: 91 % of control
[10]
  T/C: 100 % of control
[11]
  T/C: 102 % of control
[12]
  T/C: 104 % of control
[13]
  T/C: 112 % of control

## c1ccc(CC2NC(Cc3ccccc3)N3C(Cc4ccccc4)N23)cc1 (stereo not drawn)
dose: 100.0 mg/kg/injection, schedule: Q04DX003 (ip), vehicle: Klucel (hydroxypropylcellulose) (HPC)
  T/C: 102 % of control
dose: 200.0 mg/kg/injection, schedule: Q04DX003 (ip), vehicle: Klucel (hydroxypropylcellulose) (HPC)
  T/C: 100 % of control
dose: 400.0 mg/kg/injection, schedule: Q04DX003 (ip), vehicle: Klucel (hydroxypropylcellulose) (HPC)
  T/C: 93 % of control

## CSc1nnc(CCC(=O)Nc2ccc(Cl)cc2Cl)o1
[14]
  T/C: 106 % of control
[15]
  T/C: 108 % of control

## Cc1ccc(S(=O)(=O)NN=c2c3ccccc3c3nc4ccccc4nc3c3ccccc23)cc1
[5]
  T/C: 90 % of control
[6]
  T/C: 98 % of control

## CC1(c2cccc(N(CCCl)CCCl)c2)NC(=O)NC1=O (stereo not drawn)
[10]
  T/C: 166 % of control
[11]
  T/C: 184 % of control and 204 % of control
[12]
  T/C: 90 % of control

## Cc1cc(C(=O)Nc2ccc(NC3=NCCN3)cc2)c(C)cc1C(=O)Nc1ccc(NC2=NCCN2)cc1
dose: 12.5 mg/kg/injection, schedule: Q01DX005 (ip), vehicle: Klucel (hydroxypropylcellulose) (HPC)
  T/C: 101 % of control
dose: 25.0 mg/kg/injection, schedule: Q01DX005 (ip), vehicle: Klucel (hydroxypropylcellulose) (HPC)
  T/C: 106 % of control

## COc1cc(O)c2c(O)c3c(=O)cc(C)oc3cc2c1
[10]
  T/C: 102 % of control
[11]
  T/C: 109 % of control
[12]
  T/C: 112 % of control

## Cc1ccc(O)c(C2CC(C#N)CCN2C)c1 (stereo not drawn)
[14]
  T/C: 98 % of control
[15]
  T/C: 100 % of control
dose: 240.0 mg/kg/injection, schedule: Q01DX005 (ip), vehicle: saline with Tween-80
  T/C: 105 % of control

## C1#CCCCCCC#CCCCC1
dose: 20.0 mg/kg/injection, schedule: Q01DX009 (ip), vehicle: saline with Tween-80
  T/C: 109 % of control
dose: 30.0 mg/kg/injection, schedule: Q01DX009 (ip), vehicle: saline with Tween-80
  T/C: 104 % of control
dose: 44.0 mg/kg/injection, schedule: Q01DX009 (ip), vehicle: saline with Tween-80
  T/C: 100 % of control
dose: 66.0 mg/kg/injection, schedule: Q01DX009 (ip), vehicle: saline with Tween-80
  T/C: 104 % of control
[12]
  T/C: 104 % of control
dose: 150.0 mg/kg/injection, schedule: Q01DX009 (ip), vehicle: saline with Tween-80
  T/C: 109 % of control

## CCOC(=O)CCCc1ccc(N=NN(C)C)cc1
dose: 66.0 mg/kg/injection, schedule: Q04DX003 (ip), vehicle: saline with Tween-80
  T/C: 118 % of control
[16]
  T/C: 159 % of control

## CC(=O)Nc1ccccc1C(C)=O
[11]
  T/C: 91 % of control
dose: 50.0 mg/kg/injection, schedule: Q04DX003 (ip), vehicle: saline with Tween-80
  T/C: 95 % of control
[12]
  T/C: 95 % of control
[16]
  T/C: 100 % of control
[13]
  T/C: 100 % of control
dose: 200.0 mg/kg/injection, schedule: Q04DX003 (ip), vehicle: saline with Tween-80
  T/C: 100 % of control

## Cn1c2ccc(F)cc2c(=O)c2c(O)cc3c(c21)C=CC(C)(C)O3
[5]
  T/C: 100 % of control
[6]
  T/C: 102 % of control
[7]
  T/C: 94 % of control

## Nc1nc2c(c(-c3nc(N)nc4c3Cc3ccccc3-4)n1)Cc1ccccc1-2
[14]
  T/C: 98 % of control
[15]
  T/C: 100 % of control

## CCCCOP(=O)(OCCCC)OC(=C(F)F)C(F)(F)P(=O)(OCCCC)OCCCC
[1]
  T/C: 98 % of control
[2]
  T/C: 91 % of control
[3]
  T/C: 100 % of control

## CC(=O)Nc1ccc(/C=N/Nc2ccc([N+](=O)[O-])cn2)cc1
dose: 100.0 mg/kg/injection, schedule: Q01DX009 (ip), vehicle: saline
  T/C: 86 % of control
dose: 200.0 mg/kg/injection, schedule: Q01DX009 (ip), vehicle: saline
  T/C: 90 % of control
dose: 400.0 mg/kg/injection, schedule: Q01DX009 (ip), vehicle: saline
  T/C: 90 % of control

## CCN(CC)Cc1cc(C)c(O)c(N=Nc2ccc3c4c(cccc24)-c2ccccc2-3)c1C
[11]
  T/C: 90 % of control
[12]
  T/C: 93 % of control
[13]
  T/C: 89 % of control

## COC(=O)c1ccc(-c2ccccc2)cc1
[3]
  T/C: 89 % of control
[4]
  T/C: 89 % of control
[8]
  T/C: 90 % of control
[9]
  T/C: 86 % of control

## COc1cccc2c1C(=O)c1c(O)c3c(c(O)c1C2=O)C[C@@](O)(C(C)=O)CC3OC1CC(NC(=O)CCN)C(O)C(C)O1 (stereo partly drawn)
dose: 6.25 mg/kg/injection, schedule: Q04DX003 (ip), vehicle: saline
  T/C: 97 % of control
dose: 12.5 mg/kg/injection, schedule: Q04DX003 (ip), vehicle: saline
  T/C: 100 % of control
dose: 25.0 mg/kg/injection, schedule: Q04DX003 (ip), vehicle: saline
  T/C: 103 % of control
dose: 50.0 mg/kg/injection, schedule: Q04DX003 (ip), vehicle: saline
  T/C: 97 % of control

## CCCCCCCC(C)c1cc(N)c(C)cc1[N+](=O)[O-] (stereo not drawn)
dose: 25.0 mg/kg/injection, schedule: Q04DX002 (ip), vehicle: Klucel (hydroxypropylcellulose) (HPC)
  T/C: 98 % of control
dose: 50.0 mg/kg/injection, schedule: Q04DX002 (ip), vehicle: Klucel (hydroxypropylcellulose) (HPC)
  T/C: 89 % of control
